Measured values published in article PMC6923382, “Small molecules that inhibit TNF signalling by stabilising an asymmetric form of the trimer” (Nature Communications, 2019).
Entries after “also recorded” stand apart in the source; their conditions may differ.

How the values were obtained:
[1] = system: Mouse TNF superfamily; test: Thermal denaturation, mouse TNF superfamily; type: binding; conditions: 100 µM compound, 0.1 mg/mL sample; single experiment
Description: A fluorescence probed thermal denaturation assay was performed to assess the effect of the compounds on the thermal stability of TNF (or other members of the TNF family) as a measure of compound binding. The reaction mixture contained 5 µL of 30× SYPRO® Orange dye (Invitrogen) and 5 µL of TNF (at 1 mg/mL), 37.5 μL PBS, pH 7.4 and 2.5 μL of compound (at 2 mM in DMSO). The mixture (10 µL) was dispensed in quadruplicate into a 384 PCR optical well plate and was run on a 7900HT Fast Real-Time PCR System ([…]). The PCR System heating device was set at 20 °C to 99 °C with a ramp rate of 1.1 °C min^−1; fluorescence changes in the wells were monitored by a CCD device. The fluorescence intensity increase was plotted as a function of temperature and the Tm calculated as the midpoint of this denaturation curve (determined as the point of inflection).
Compound based thermal stability increase (oC)
100 µM compound 0.1 mg/mL sample […]
compared to human TNF. Human proteins were provided through a collaboration with Beryllium. Data from a single experiment. […]
compared to mouse TNF. Mouse proteins were purchased from R&D Systems. (Note: No Tm for Lymphotoxin (LTa) was detected in this assay making a change in Tm unmeasurable).
Data from a single experiment.
(also on this page, place not known: 16.0Thermal 10Thermal stability difference (oC) stability increase (oC))

[2] = biological target: T1, TNF (L57F) (Homo sapiens, UniProt P01375, L133F); test: HEK reporter gene assay, L57F TNF; type: cell-based; conditions: 10 pM L57F TNF; HEK NFκΒ reporter
T1 construct: Human TNF (CID2043, UniProt P01375 residues 77–233); 6XHis-Smt3 (N, cleaved yes); host or cells: E. coli
T1 sequence (P01375 77-233 L133F): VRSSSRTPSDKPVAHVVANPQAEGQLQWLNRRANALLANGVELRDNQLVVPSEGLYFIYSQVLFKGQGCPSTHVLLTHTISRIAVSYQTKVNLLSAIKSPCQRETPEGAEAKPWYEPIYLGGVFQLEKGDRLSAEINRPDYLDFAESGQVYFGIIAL
Description: Stimulation of HEK-293 cells by TNF leads to activation of the NF-κB pathway. The HEK-Blue^TM CD40L SEAP (secreted embryonic alkaline phosphatase) reporter cell line used to determine TNF activity (InvivoGen, #hkb-CD40, cells were described as mycoplasma free when purchased and were tested using Mycoalert [Lonza] after each batch of assay vial preparation). Compounds were titrated in DMSO and pre-incubated with TNF at a concentration giving half maximal response (10 pM for human or 20 pM for mouse) or the anti-human TNFR1 agonist antibody (R&D Systems. #AF 225) for 1 h. Cells were added to the compound/stimulus mixture and further incubated for 18 h. SEAP was measured using the colorimetric substrate HEK-Blue Detect^TM or QUANTI-Blue^TM from InvivoGen. Percentage inhibitions for compound dilutions were calculated between a DMSO control and maximum inhibition (by excess anti-TNF biologic, or NF-κB inhibitor–TPCA-1 [Tocris #2559, R&D Systems]). The IC50 was determined as the point of inflexion between the fitted minimum and maximum of the compound dose response curve, calculated using 4PL fitted curve. Mean IC50s are reported as a mean of at least two experiments. Dose response curves for TNF and the anti-human TNFR1 agonist antibody are shown in Supplementary Fig. 9. […]
In this assay reduction is luminescence is due to cell killing by TNF and inhibition causes increased luminescence. […]

[3] = system: NF-κB stimulated by the TNFR1 agonist antibody; test: HEK-293 reporter gene assay, anti-TNFR1 agonist antibody stimulus; type: cell-based, human; conditions: agonist antibody 0.3 μg/mL; compound up to 10 µM
Description: Stimulation of HEK-293 cells by TNF leads to activation of the NF-κB pathway. The HEK-Blue^TM CD40L SEAP (secreted embryonic alkaline phosphatase) reporter cell line used to determine TNF activity (InvivoGen, #hkb-CD40, cells were described as mycoplasma free when purchased and were tested using Mycoalert [Lonza] after each batch of assay vial preparation). Compounds were titrated in DMSO and pre-incubated with TNF at a concentration giving half maximal response (10 pM for human or 20 pM for mouse) or the anti-human TNFR1 agonist antibody (R&D Systems. #AF 225) for 1 h. Cells were added to the compound/stimulus mixture and further incubated for 18 h. SEAP was measured using the colorimetric substrate HEK-Blue Detect^TM or QUANTI-Blue^TM from InvivoGen. Percentage inhibitions for compound dilutions were calculated between a DMSO control and maximum inhibition (by excess anti-TNF biologic, or NF-κB inhibitor–TPCA-1 [Tocris #2559, R&D Systems]). The IC50 was determined as the point of inflexion between the fitted minimum and maximum of the compound dose response curve, calculated using 4PL fitted curve. Mean IC50s are reported as a mean of at least two experiments. Dose response curves for TNF and the anti-human TNFR1 agonist antibody are shown in Supplementary Fig. 9.

[4] = biological target: TNF (Homo sapiens, UniProt P01375); test: Biacore kinetics of binding; set-up: Human TNF (CID2043, UniProt P01375 residues 77–233); 6XHis-Smt3 (N, cleaved yes); host or cells: E. coli TOP10; conditions: SPR single-cycle; linked TNF with n-terminal HKH tag; read-out: KD
TNF, sequence (P01375 with tags, fused parts or gaps): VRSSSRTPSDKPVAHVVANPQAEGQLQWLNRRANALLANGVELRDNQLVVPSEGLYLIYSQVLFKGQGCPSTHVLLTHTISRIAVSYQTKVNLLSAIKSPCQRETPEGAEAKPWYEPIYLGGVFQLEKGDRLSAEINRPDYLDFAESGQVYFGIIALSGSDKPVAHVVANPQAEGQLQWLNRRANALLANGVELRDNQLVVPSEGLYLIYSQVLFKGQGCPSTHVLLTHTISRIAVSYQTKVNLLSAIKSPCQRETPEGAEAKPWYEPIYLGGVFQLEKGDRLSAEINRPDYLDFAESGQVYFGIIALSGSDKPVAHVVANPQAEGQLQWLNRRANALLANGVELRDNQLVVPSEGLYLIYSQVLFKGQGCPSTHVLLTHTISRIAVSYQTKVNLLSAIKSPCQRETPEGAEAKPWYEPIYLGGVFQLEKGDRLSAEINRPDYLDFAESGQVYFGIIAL
Description: Surface plasmon resonance using a Biacore T100/T200 was used to measure the association rate constant (ka), the dissociation rate constant (kd) and the affinity (KD) of compounds. TNF (VCID 2043 Beryllium) was immobilised to approximately 5 kRU as described above and equilibrated for at least 5 h in HBS P + buffer with 5% DMSO. UCB-6876 was serially diluted from 187.5 µM, flowing over the immobilised TNF at 50 µL/min for 3 min before allowing full dissociation under flow for at least 6 min. […] […] The compounds were allowed to dissociate for 2 h under flow.

Cc1ccc(C)c(Cn2c(C(O)c3ccncc3)nc3ccc(-c4cnn(C)c4)cc32)c1 (stereo not shown) [UCB-9260]
change in Tm of other mouse TNF superfamily members [1]: negligible effect | inhibition of L57F TNF [2]: did not inhibit; also recorded: no activity | inhibition of NF-κB stimulated by TNFR1 agonist antibody [3]: no inhibition | Kd [4]: 13 nM
